The results in this text go back to ChEMBL document CHEMBL3352570, “ST7612AA1, a thioacetate-ω(γ-lactam carboxamide) derivative selected from a novel generation of oral HDAC inhibitors” (J Med Chem, 2014).

For test [1], the target named is Histone deacetylase 1 (Homo sapiens, UniProt Q13547). As to the kind of experiment: Inhibition of HDAC1 (unknown origin) using fluorogenic tetrapeptide RHKK(Ac) substrate by fluorescence assay.
The target of test [2] is Histone deacetylase 2 (Homo sapiens, UniProt Q92769). The test can be described thus: Inhibition of HDAC2 (unknown origin) using fluorogenic tetrapeptide RHKK(Ac) substrate by fluorescence assay.
Sequence of Histone deacetylase 2 (Q92769 whole entry): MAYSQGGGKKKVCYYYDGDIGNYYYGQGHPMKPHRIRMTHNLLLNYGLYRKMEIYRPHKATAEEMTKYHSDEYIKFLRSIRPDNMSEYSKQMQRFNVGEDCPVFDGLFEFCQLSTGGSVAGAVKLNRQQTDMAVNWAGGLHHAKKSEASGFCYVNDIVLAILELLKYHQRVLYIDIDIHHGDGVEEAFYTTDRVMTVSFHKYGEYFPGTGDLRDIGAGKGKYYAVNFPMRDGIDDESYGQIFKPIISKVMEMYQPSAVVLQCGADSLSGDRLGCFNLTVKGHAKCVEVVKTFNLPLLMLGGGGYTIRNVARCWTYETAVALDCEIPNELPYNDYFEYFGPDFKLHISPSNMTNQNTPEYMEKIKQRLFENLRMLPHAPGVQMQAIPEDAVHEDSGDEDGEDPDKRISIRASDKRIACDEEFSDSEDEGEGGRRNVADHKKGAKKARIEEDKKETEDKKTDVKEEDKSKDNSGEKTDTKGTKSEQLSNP
Test [3] has as its target Histone deacetylase 3 (Homo sapiens, UniProt O15379). The test can be described thus: Inhibition of HDAC3 (unknown origin) using fluorogenic tetrapeptide RHKK(Ac) substrate by fluorescence assay.
For test [4], the target named is T1, Protein deacetylase HDAC6 (Homo sapiens, UniProt Q9UBN7).
T1 sequence (Q9UBN7 whole entry): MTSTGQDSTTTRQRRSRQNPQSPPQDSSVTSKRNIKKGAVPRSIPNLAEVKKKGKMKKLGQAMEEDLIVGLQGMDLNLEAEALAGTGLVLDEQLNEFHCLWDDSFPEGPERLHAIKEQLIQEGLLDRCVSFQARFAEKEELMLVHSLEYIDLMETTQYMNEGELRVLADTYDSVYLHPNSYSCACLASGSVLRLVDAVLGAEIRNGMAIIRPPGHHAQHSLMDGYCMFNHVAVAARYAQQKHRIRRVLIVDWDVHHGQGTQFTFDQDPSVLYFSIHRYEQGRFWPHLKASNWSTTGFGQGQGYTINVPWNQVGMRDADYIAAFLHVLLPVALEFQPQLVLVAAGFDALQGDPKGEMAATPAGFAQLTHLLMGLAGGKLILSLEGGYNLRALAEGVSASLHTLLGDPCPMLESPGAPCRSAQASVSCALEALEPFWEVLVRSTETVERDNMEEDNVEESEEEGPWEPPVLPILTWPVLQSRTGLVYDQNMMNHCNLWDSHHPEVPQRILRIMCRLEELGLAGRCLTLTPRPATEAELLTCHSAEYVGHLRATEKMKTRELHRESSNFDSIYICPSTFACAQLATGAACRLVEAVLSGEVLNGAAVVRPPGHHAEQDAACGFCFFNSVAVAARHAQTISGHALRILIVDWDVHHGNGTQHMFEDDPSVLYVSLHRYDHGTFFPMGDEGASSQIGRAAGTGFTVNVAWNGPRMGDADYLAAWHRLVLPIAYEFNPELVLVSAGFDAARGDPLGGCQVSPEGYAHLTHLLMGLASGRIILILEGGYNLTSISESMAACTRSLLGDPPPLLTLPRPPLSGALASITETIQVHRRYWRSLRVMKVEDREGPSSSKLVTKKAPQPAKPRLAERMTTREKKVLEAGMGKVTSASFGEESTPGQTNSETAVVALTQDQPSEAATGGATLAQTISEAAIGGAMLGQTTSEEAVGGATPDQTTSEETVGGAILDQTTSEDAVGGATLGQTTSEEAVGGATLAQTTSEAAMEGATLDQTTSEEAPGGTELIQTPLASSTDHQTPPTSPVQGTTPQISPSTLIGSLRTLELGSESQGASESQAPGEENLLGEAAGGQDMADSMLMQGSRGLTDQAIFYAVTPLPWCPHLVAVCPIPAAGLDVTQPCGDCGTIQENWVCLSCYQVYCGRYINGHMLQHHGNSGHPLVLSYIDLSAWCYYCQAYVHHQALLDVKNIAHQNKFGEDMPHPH
The test can be described thus: Inhibition of HDAC6 (unknown origin) using fluorogenic tetrapeptide RHKK(Ac) substrate by fluorescence assay.

Test [5] deals with T2, Histone deacetylase 8 (Homo sapiens, UniProt Q9BY41).
T2 sequence (Q9BY41 whole entry): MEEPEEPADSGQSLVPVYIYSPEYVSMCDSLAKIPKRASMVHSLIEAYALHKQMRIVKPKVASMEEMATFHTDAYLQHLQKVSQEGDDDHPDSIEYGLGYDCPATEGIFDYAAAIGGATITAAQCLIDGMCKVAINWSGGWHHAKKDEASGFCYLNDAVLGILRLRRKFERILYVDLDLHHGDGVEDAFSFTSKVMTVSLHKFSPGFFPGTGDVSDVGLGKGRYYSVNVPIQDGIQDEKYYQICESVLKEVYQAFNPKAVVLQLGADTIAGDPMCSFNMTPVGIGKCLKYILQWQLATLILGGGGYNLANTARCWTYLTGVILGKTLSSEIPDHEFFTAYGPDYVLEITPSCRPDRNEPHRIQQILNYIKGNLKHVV
The test can be described thus: Inhibition of HDAC8 (unknown origin) using fluorogenic tetrapeptide RHK(Ac)K(Ac) substrate by fluorescence assay.

Test [6] concerns the target T3, Polyamine deacetylase HDAC10 (Homo sapiens, UniProt Q969S8).
T3 sequence (Q969S8 whole entry): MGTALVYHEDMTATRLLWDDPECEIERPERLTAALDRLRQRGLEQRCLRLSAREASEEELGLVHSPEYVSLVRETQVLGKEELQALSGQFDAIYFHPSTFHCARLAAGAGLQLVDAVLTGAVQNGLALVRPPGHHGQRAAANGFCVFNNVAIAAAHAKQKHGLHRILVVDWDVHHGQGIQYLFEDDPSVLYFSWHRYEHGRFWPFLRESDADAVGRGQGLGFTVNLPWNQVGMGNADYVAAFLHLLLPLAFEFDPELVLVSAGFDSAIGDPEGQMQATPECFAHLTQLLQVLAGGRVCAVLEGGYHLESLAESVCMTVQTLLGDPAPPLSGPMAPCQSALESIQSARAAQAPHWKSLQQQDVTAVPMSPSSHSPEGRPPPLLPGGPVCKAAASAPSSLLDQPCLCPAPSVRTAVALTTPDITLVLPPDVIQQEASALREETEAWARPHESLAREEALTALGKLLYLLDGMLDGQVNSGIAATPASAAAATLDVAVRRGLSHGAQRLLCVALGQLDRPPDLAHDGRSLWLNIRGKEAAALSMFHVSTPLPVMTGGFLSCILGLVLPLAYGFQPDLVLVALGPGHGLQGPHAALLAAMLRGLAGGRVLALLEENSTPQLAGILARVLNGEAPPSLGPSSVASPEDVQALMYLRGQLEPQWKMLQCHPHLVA
As to the kind of experiment: Inhibition of HDAC10 (unknown origin) using fluorogenic tetrapeptide RHKK(Ac) substrate by fluorescence assay.

The target in test [7] is T4, Histone deacetylase 11 (Homo sapiens, UniProt Q96DB2).
T4 sequence (Q96DB2 whole entry): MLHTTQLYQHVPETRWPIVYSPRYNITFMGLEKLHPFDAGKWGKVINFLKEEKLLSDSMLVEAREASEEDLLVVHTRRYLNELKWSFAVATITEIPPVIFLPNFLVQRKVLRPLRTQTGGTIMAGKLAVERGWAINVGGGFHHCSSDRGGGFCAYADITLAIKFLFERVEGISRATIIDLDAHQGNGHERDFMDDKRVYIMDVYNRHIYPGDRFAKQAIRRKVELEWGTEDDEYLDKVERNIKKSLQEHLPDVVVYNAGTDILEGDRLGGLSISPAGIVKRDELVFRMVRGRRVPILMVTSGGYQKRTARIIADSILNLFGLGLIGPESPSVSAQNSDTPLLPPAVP
As to the kind of experiment: Inhibition of HDAC11 (unknown origin) using fluorogenic tetrapeptide RHKK(Ac) substrate by fluorescence assay.

Sequence of Histone deacetylase 3 (O15379 whole entry): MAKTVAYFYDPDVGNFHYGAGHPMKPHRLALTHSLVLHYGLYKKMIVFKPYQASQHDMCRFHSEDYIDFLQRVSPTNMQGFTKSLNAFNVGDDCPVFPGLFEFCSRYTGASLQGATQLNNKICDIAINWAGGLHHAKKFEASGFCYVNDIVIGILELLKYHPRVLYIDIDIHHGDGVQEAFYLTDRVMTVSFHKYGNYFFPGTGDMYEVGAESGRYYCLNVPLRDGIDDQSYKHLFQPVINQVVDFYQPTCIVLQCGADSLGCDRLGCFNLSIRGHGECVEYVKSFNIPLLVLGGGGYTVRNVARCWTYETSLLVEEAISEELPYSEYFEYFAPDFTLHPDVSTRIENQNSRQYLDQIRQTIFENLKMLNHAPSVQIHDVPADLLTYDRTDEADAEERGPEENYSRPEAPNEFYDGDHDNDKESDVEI
Sequence of Histone deacetylase 1 (Q13547 whole entry): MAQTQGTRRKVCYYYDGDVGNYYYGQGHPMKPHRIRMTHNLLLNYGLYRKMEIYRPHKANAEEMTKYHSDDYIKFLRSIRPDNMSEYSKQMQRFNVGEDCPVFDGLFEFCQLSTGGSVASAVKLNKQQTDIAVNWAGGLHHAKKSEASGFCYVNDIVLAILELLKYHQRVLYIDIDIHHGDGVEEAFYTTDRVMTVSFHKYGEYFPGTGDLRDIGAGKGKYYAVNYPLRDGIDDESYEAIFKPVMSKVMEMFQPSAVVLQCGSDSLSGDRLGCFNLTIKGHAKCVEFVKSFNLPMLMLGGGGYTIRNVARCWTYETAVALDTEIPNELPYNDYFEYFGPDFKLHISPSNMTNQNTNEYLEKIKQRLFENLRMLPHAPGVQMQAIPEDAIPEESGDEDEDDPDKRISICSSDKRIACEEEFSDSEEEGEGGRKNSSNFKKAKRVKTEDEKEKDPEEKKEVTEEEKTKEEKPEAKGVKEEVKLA

For `O=C1NC[C@H](c2ccccc2)[C@H]1C(=O)N[C@@H](CCCCCS)C(=O)Nc1ccccc1`, the IC50 was 53 nM in test [1]; 2230 nM in test [2]; 55 nM in test [3]; 160 nM in test [4]; 2040 nM in test [5]; 7 nM in test [6]. The IC50 in test [7] was 12 nM.
Take `Cc1cccc(NC(=O)[C@H](CCCCCS)NC(=O)[C@H]2CCC(=O)N2)c1`: the IC50 in test [1] turned out to be 4 nM; in test [2], 14 nM; in test [3] it was 3 nM; in test [4] it was 2 nM; in test [5] it was 106 nM; in test [6], 4 nM. It took 5 nM to reach half-maximal inhibition in test [7] (IC50).
For the compound `O=C(CCCCCCS)NC1CCCC1`, the half-inhibitory concentration (IC50) in test [1] worked out at 865 nM; in test [2] it was 6640 nM; in test [3], 897 nM; in test [4] it was 87 nM; in test [5] it was 2330 nM; in test [6] it was 1170 nM. 776 nM corresponded to half-maximal inhibition in test [7] (IC50).
Consider `O=C1CCC[C@@H](C(=O)N[C@@H](CCCCCS)C(=O)Nc2ccccc2)N1`, for which the IC50 worked out at 15 nM in test [1]; 67 nM in test [2]; 10 nM in test [3]; 6 nM in test [4]; 416 nM in test [5]; 11 nM in test [6]. This compound yielded an IC50 in test [7] of 6 nM.
For `O=C1CC[C@@H](C(=O)N[C@@H](CCCCCS)C(=O)Nc2ccccc2)N1`, the half-maximal inhibitory concentration (IC50) in test [1] stood at 24 nM; in test [2] it was 33 nM; in test [3] it was 13 nM; in test [4], 1 nM; in test [5] it was 59 nM; in test [6], 15 nM. Further, it took 30 nM to reach half-maximal inhibition in test [7] (IC50).
Take `O=C1CCC[C@@H](C(=O)N[C@@H](CCCCCS)C(=O)NC2CCCC2)N1`: the concentration for half-maximal inhibition (IC50) came to 160 nM in test [1]; 454 nM in test [2]; 98 nM in test [3]; 6 nM in test [4]; 450 nM in test [5]; 189 nM in test [6]. The same compound displayed an IC50 in test [7] of 89 nM.
For `O=C1CC[C@H](C(=O)N[C@@H](CCCCCS)C(=O)Nc2cccc(C(F)(F)F)c2)N1`, the IC50 in test [1] was 5 nM; in test [2], 12 nM; in test [3], 11 nM; in test [4], 5 nM; in test [5] it was 316 nM; in test [6], 7 nM. In test [7], 44 nM corresponded to half-maximal inhibition (IC50).
On to `O=C1NCCC[C@@H]1C(=O)N[C@@H](CCCCCS)C(=O)Nc1ccccc1`, for which the IC50 in test [1] worked out at 12 nM; in test [2], 48 nM; in test [3] it was 5 nM; in test [4] it was 1 nM; in test [5] it was 122 nM; in test [6], 11 nM. This compound also had an IC50 in test [7] of 15 nM.
For the compound `O=C1CCC[C@@H](C(=O)N[C@@H](CCCCCS)C(=O)NCc2cccc(OCc3ccccc3)c2)N1`, the IC50 in test [1] came out at 504 nM; in test [2], 2540 nM; in test [3], 495 nM; in test [4] it was 83 nM; in test [5], 9 nM; in test [6], 658 nM. In addition, in test [7], the IC50 is 293 nM.
Turning to `Cc1cccc(NC(=O)[C@H](CCCCCS)NC(=O)[C@@H]2CCC(=O)N2)c1`, the IC50 was found to be 5 nM in test [1]; 13 nM in test [2]; 4 nM in test [3]; 1 nM in test [4]; 106 nM in test [5]; 5 nM in test [6]. In test [7], this compound showed an IC50 of 62 nM.
Regarding `Cc1cccc(NC(=O)[C@H](CCCCCS)NC(=O)[C@@H]2CCCC(=O)N2)c1`, the IC50 in test [1] was 2 nM; in test [2], 15 nM; in test [3] it was 1 nM; in test [4], 1 nM; in test [5], 135 nM; in test [6], 1 nM. Moreover, half-maximal inhibition in test [7] (IC50) required 1 nM.
As to `O=C1NC[C@H](c2ccccc2)[C@@H]1C(=O)N[C@@H](CCCCCS)C(=O)Nc1ccccc1`, the IC50 is 32 nM in test [1]; 168 nM in test [2]; 9 nM in test [3]; 4 nM in test [4]; 310 nM in test [5]; 14 nM in test [6]. The compound also registered an IC50 in test [7] of 13 nM.
`CN1C(=O)CCC[C@H]1C(=O)N[C@@H](CCCCCS)C(=O)Nc1ccccc1`: the IC50 in test [1] was 11 nM; in test [2] it was 70 nM; in test [3] it was 7 nM; in test [4] it was 3 nM; in test [5] it was 202 nM; in test [6], 6 nM. This compound also gave an IC50 in test [7] of 5 nM.
On to `O=C1NC[C@@H](c2ccccc2)[C@@H]1C(=O)N[C@@H](CCCCCS)C(=O)Nc1ccccc1`, for which the IC50 in test [1] is 7 nM; in test [2], 37 nM; in test [3] it was 2 nM; in test [4] it was 4 nM; in test [5] it was 40 nM; in test [6] it was 5 nM. Further, in test [7], the IC50 is 4 nM.
With `O=C1CC[C@H](C(=O)N[C@H](CCCCCS)C(=O)Nc2ccccc2)N1`, the IC50 in test [1] was 101 nM; in test [2], 171 nM; in test [3], 138 nM; in test [4] it was 21 nM; in test [5], 8100 nM; in test [6], 40 nM. In test [7], half-maximal inhibition (IC50) required 102 nM.
For `O=C1CCC[C@H](C(=O)N[C@@H](CCCCCS)C(=O)Nc2ccccc2)N1`, the IC50 in test [1] stood at 10 nM; in test [2], 34 nM; in test [3] it was 6 nM; in test [4], 5 nM; in test [5], 107 nM; in test [6] it was 32 nM. The IC50 in test [7] came out at 10 nM.

What is called IC50 is the point on the concentration scale where inhibition reaches its midpoint. Lower therefore signals inhibition by little substance.
